Laboratory results published in patent US20240158446A1, “CYCLIC COMPOUND HAVING SELECTIVE INHIBITORY ACTION ON KRAS OVER HRAS AND NRAS” (CHUGAI SEIYAKU KABUSHIKI KAISHA, priority 2021, published 2024).
Where a SMILES comes first, the peptide text is derived from it. Bridges are numbered along the chain shown (N, C = ends). [ ]: non-standard residue; d: D form. The star is where a group is joined. hPhe(3-Cl-4-CF3) = N[C@@H](CCc1ccc(C(F)(F)F)c(Cl)c1)C(=O)O; NPrPhe(4-CF3) = CCCN[C@@H](Cc1ccc(C(F)(F)F)cc1)C(=O)O; NMeChg = CN[C@H](C(=O)O)C1CCCCC1; NMeD = CN[C@@H](CC(=O)O)C(=O)O; NMeL = CN[C@@H](CC(C)C)C(=O)O; Morpholide = C1CN(*)CCO1; Ac4c = NC1(C(=O)O)CCC1; Sar = CNCC(=O)O

How the values were obtained:
[1] = target: GDP-bound KRAS wild-type protein (Homo sapiens, UniProt P01116); assay: Binding to KRAS by surface plasmon resonance (SPR), Single Cycle Kinetics; settings: SPR, Single Cycle Kinetics, GDP-bound KRAS wild-type protein; read-out: KRAS KD
[2] = target: GDP-bound NRAS wild-type protein (Homo sapiens, UniProt P01111); assay: Binding to NRAS by surface plasmon resonance (SPR), Single Cycle Kinetics; settings: ratio of KD for GDP-bound NRAS wild-type protein to KD for KRAS, SPR
[3] = target: GDP-bound HRAS wild-type protein (Homo sapiens, UniProt P01112); assay: Binding to HRAS by surface plasmon resonance (SPR), Single Cycle Kinetics; settings: ratio of KD for GDP-bound HRAS wild-type protein to KD for KRAS, SPR
[4] = test system: human lung cancer strain NCI-H441; assay: cells; settings: NCI-H441, 96 h, read-out: NCI-H441 IC50 (nM), NCI-H441 cell proliferation, 4 days, CellTiter-Glo;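 note: cell proliferation inhibition after four days measured by CellTiter-Glo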

GDP-bound NRAS wild-type protein, sequence (P01111 whole entry): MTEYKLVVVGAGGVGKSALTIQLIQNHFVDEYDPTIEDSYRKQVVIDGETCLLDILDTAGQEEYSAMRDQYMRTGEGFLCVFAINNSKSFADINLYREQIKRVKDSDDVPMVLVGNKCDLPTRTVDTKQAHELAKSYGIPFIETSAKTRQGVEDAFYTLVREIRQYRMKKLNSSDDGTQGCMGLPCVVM
GDP-bound HRAS wild-type protein, sequence (P01112 whole entry): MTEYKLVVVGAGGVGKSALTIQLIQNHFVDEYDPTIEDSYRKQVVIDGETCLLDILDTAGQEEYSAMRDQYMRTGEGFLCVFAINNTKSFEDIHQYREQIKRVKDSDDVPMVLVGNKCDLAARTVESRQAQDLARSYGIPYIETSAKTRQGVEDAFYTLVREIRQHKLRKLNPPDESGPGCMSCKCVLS
GDP-bound KRAS wild-type protein, sequence (P01116 whole entry): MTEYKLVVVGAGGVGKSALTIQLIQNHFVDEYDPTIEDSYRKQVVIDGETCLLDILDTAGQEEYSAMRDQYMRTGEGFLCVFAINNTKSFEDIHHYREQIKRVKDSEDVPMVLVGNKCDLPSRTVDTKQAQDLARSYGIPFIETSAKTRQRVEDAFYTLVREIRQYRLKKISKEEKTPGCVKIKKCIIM

| Structure (SMILES) | Kd [1] [nM] | IC50 [4] [nM] | NRAS/KRAS (KD ratio) [2] | HRAS/KRAS (KD ratio) [3] |
| --- | --- | --- | --- | --- |
| CCC[C@H]1C(=O)N[C@@H]([C@@H](C)CC)C(=O)N(C)CC(=O)N(C)[C@H]2C/C=C\CCN(C2=O)[C@@H](Cc2ccc(C)cc2)C(=O)N(C)CC(=O)N[C@@H](CCc2ccc(C(F)(F)F)c(Cl)c2)C(=O)N2C[C@H](OCC)C[C@H]2C(=O)NC2(CC(C)(C)C2)C(=O)N(C)[C@@H](C2CCCC2)C(=O)N(C)[C@H](C(=O)N(C)C)CC(=O)N1C [PP1896] | 0.06 | 5.3 | A (a compound having 10 or more and less than 20 is denoted as A) | B (a compound having 3 or more and less than 10 is denoted as B) |
| CCCOC[C@H]1C(=O)N[C@@H]([C@@H](C)CC)C(=O)N(C)CC(=O)N(C)[C@H]2C/C=C\CCN(C2=O)[C@@H](Cc2ccc(C(F)(F)F)cc2)C(=O)N(C)CC(=O)N[C@@H](CCc2ccc(C(F)(F)F)c(Cl)c2)C(=O)N2C[C@H](OCC)C[C@H]2C(=O)NC2(CC(C)(C)C2)C(=O)N(C)[C@@H](C2CCCC2)C(=O)N(C)[C@H](C(=O)N(C)C)CC(=O)N1C [PP1754] | 0.064 | 3 | A (a compound having 10 or more and less than 20 is denoted as A) | A (a compound having 10 or more and less than 20 is denoted as A) |
| CCOC[C@H]1C(=O)N[C@@H]([C@@H](C)CC)C(=O)N(C)CC(=O)N(C)[C@H]2C/C=C\CCN(C2=O)[C@@H](Cc2ccc(C(F)(F)F)cc2)C(=O)N(C)CC(=O)N[C@@H](CCc2ccc(C(F)(F)F)c(OC)c2)C(=O)N2C[C@H](OCC)C[C@H]2C(=O)NC2(CC(C)(C)C2)C(=O)N(C)[C@@H](C2CCCC2)C(=O)N(C)[C@H](C(=O)N(C)CC)CC(=O)N1C [PP2014] | 0.093 | 6.9 | A (a compound having 10 or more and less than 20 is denoted as A) | A (a compound having 10 or more and less than 20 is denoted as A) |
| CCO[C@@H]1C[C@H]2C(=O)NC3(CC(C)(C)C3)C(=O)N(C)[C@@H](C3CCCC3)C(=O)N(C)[C@H](C(=O)N(CC)CC)CC(=O)N(C)[C@@H](CC)C(=O)N[C@@H]([C@@H](C)CC)C(=O)N(C)CC(=O)N(C)[C@H]3C/C=C\CCN(C3=O)[C@@H](Cc3ccc(C)cc3)C(=O)N(C)CC(=O)N[C@@H](CCc3ccc(C(F)(F)F)c(OC)c3)C(=O)N2C1 [PP1881] | 0.29 | 16.7 | A (a compound having 10 or more and less than 20 is denoted as A) | A (a compound having 10 or more and less than 20 is denoted as A) |
| CCC[C@H]1C(=O)N[C@@H]([C@@H](C)CC)C(=O)N(C)CC(=O)N(C)[C@H]2C/C=C\CCN(C2=O)[C@@H](Cc2ccc(C(F)(F)F)cc2)C(=O)N(C)CC(=O)N[C@@H](CCc2cc(F)c(C(F)(F)F)c(F)c2)C(=O)N(C)[C@@H](COC)C(=O)NC2(CC(C)(C)C2)C(=O)N(C)[C@@H](C2CCCC2)C(=O)N(C)[C@H](C(=O)N(C)C)CC(=O)N1C [PP1936] | 0.4 | 12.3 | AA (a compound having 20 or more is denoted as AA) | A (a compound having 10 or more and less than 20 is denoted as A) |
| C#CC[C@H]1C(=O)N[C@@H]([C@@H](C)CC)C(=O)N(C)CC(=O)N(C)[C@H]2C/C=C\CCN(C2=O)[C@@H](Cc2ccc(C(F)(F)F)cc2)C(=O)N(C)CC(=O)N[C@@H](CCc2cc(F)c(C(F)(F)F)c(F)c2)C(=O)N2C[C@H](F)C[C@H]2C(=O)NC2(CC(C)(C)C2)C(=O)N(C)[C@@H](C2CCCC2)C(=O)N(C)[C@H](C(=O)N(C)CC)CC(=O)N1C [PP1691] | 0.06 | 3.1 | A (a compound having 10 or more and less than 20 is denoted as A) | A (a compound having 10 or more and less than 20 is denoted as A) |

The next lines start with results.

| Kd [1] [nM] | IC50 [4] [nM] | Structure (SMILES) | NRAS/KRAS (KD ratio) [2] | HRAS/KRAS (KD ratio) [3] |
| --- | --- | --- | --- | --- |
| 0.31 | 24.3 | CC[C@H](C)[C@@H]1NC(=O)[C@H](CC)N(C)C(=O)C[C@@H](C(=O)N(CC)CC)N(C)C(=O)[C@H](C2CCCC2)N(C)C(=O)C2(CC(C)(C)C2)NC(=O)[C@@H]2C[C@H](C)CN2C(=O)[C@H](CCc2ccc(C(F)(F)F)c(OC)c2)NC(=O)CN(C)C(=O)[C@H](Cc2ccc(C)cc2)N2CC/C=C\C[C@@H](C2=O)N(C)C(=O)CN(C)C1=O [PP1839] | A (a compound having 10 or more and less than 20 is denoted as A) | B (a compound having 3 or more and less than 10 is denoted as B) |
| 0.25 | 18.4 | CCCN1C(=O)CN(C)C(=O)CN(C)C(=O)[C@H]([C@@H](C)CC)NC(=O)[C@H](CC(C)C)N(C)C(=O)C[C@@H](C(=O)N2CCOCC2)N(C)C(=O)[C@H](C2CCCCC2)N(C)C(=O)C2(CCC2)NC(=O)[C@@H]2CCCN2C(=O)[C@H](CCc2ccc(C(F)(F)F)c(Cl)c2)NC(=O)CN(C)C(=O)[C@@H]1Cc1ccc(C(F)(F)F)cc1 [PP1928] ([NMeL]I[Sar][Sar][NPrPhe(4-CF3)][Sar][hPhe(3-Cl-4-CF3)]P[Ac4c][NMeChg][NMeD]-Morpholide; lactam N-11) | B (a compound having 3 or more and less than 10 is denoted as B) | B (a compound having 3 or more and less than 10 is denoted as B) |
| 0.15 | 13.1 | CCC[C@H]1C(=O)N[C@@H]([C@@H](C)CC)C(=O)N(C)CC(=O)N(C)[C@H]2C/C=C\CCN(C2=O)[C@@H](Cc2ccc(C(F)(F)F)cc2)C(=O)N(C)CC(=O)N[C@@H](CCc2ccc(Cl)c(Cl)c2)C(=O)N2C[C@H](OCC)C[C@H]2C(=O)NC2(CC(C)(C)C2)C(=O)N(C)[C@@H](C2CCCC2)C(=O)N(C)[C@H](C(=O)N(C)C)CC(=O)N1C [PP1932] | A (a compound having 10 or more and less than 20 is denoted as A) | A (a compound having 10 or more and less than 20 is denoted as A) |
| 0.03 | 1.7 | CCO[C@@H]1C[C@H]2C(=O)N(C)C3(CCC3)C(=O)N(C)[C@@H](C3CCCC3)C(=O)N(C)[C@H](C(=O)N(C)C)CC(=O)N(C)[C@@H](CC(C)C)C(=O)N[C@@H]([C@@H](C)CC)C(=O)N(C)CC(=O)N(C)[C@H]3C/C=C\CCN(C3=O)[C@@H](Cc3ccc(C)cc3)C(=O)N(C)CC(=O)N[C@@H](CCc3cc(F)c(C(F)(F)F)c(F)c3)C(=O)N2C1 [PP1790] | A (a compound having 10 or more and less than 20 is denoted as A) | B (a compound having 3 or more and less than 10 is denoted as B) |
| 0.32 | 17.6 | CCCN1C(=O)C[C@@H](C(=O)N(C)C)N(C)C(=O)[C@H](C2CCCC2)N(C)C(=O)C2(CCC2)NC(=O)[C@@H]2C[C@@H](OCC)CN2C(=O)[C@H](CCc2cc(F)c(C(F)(F)F)c(F)c2)NC(=O)CN(C)C(=O)[C@H](Cc2ccc(C(F)(F)F)cc2)N2CC/C=C\C[C@@H](C2=O)N(C)C(=O)CNC(=O)[C@H]([C@@H](C)CC)NC(=O)[C@@H]1CC(C)C [PP1826] | A (a compound having 10 or more and less than 20 is denoted as A) | A (a compound having 10 or more and less than 20 is denoted as A) |
| 0.16 | 4.6 | CCO[C@@H]1C[C@H]2C(=O)N(C)C3(CCCC3)C(=O)N(C)[C@@H](C3CCCC3)C(=O)N(C)[C@H](C(=O)N(C)C)CC(=O)N(C)[C@@H](CC)C(=O)N[C@@H]([C@@H](C)CC)C(=O)N3CCC[C@H]3C(=O)N(C)[C@H]3C/C=C\CCN(C3=O)[C@@H](Cc3ccc(C)cc3)C(=O)N(C)CC(=O)N[C@@H](CCc3cc(F)c(C(F)(F)F)c(F)c3)C(=O)N2C1 [PP1810] | A (a compound having 10 or more and less than 20 is denoted as A) | B (a compound having 3 or more and less than 10 is denoted as B) |
| 0.17 | 23.6 | CC[C@H](C)[C@@H]1NC(=O)[C@H](CC(C)C)N(C)C(=O)C[C@@H](C(=O)N(C)CC)N(C)C(=O)[C@H](C2CCCC2)N(C)C(=O)C2(CCC2)NC(=O)[C@@H]2C[C@@H](C)CN2C(=O)[C@H](CCc2ccc(C(F)(F)F)c(OC)c2)NC(=O)CN(C)C(=O)[C@H](Cc2ccc(C)cc2)N2CC/C=C\C[C@@H](C2=O)N(C)C(=O)CN(C)C1=O [PP1907] | AA (a compound having 20 or more is denoted as AA) | A (a compound having 10 or more and less than 20 is denoted as A) |
| 6.4 | 170 | CCO[C@@H]1C[C@H]2C(=O)NC3(CC(C)(C)C3)C(=O)N(C)[C@@H](C3CCCC3)C(=O)N3CCC[C@@H]3CC(=O)N(C)[C@@H](CC)C(=O)N[C@@H]([C@@H](C)CC)C(=O)N(C)CC(=O)N(C)[C@H]3C/C=C\CCN(C3=O)[C@@H](CC3CCCCC3)C(=O)N(C)CC(=O)N[C@@H](CCc3cc(F)c(C(F)(F)F)c(F)c3)C(=O)N2C1 [PP1620] | B (a compound having 3 or more and less than 10 is denoted as B) | B (a compound having 3 or more and less than 10 is denoted as B) |
| 0.062 | 5 | CC[C@H](C)[C@@H]1NC(=O)[C@H](CC)N(C)C(=O)C[C@@H](C(=O)N(C)C)N(C)C(=O)[C@H](C2CCCC2)N(C)C(=O)C2(CCCC2)N(C)C(=O)[C@@H]2CCCN2C(=O)[C@H](CCc2cc(F)c(C(F)(F)F)c(F)c2)NC(=O)CN(C)C(=O)[C@H](Cc2ccc(C)cc2)N2CC/C=C\C[C@@H](C2=O)N(C)C(=O)CN(C)C1=O [PP1807] | A (a compound having 10 or more and less than 20 is denoted as A) | B (a compound having 3 or more and less than 10 is denoted as B) |
